Reference: patent publication US20080025918A1, “Invisible light fluorescent platelets for intraoperative detection of vascular thrombosis” (Beth Israel Deaconess Medical Center, Inc., priority 2006, published 2008)

Experiments:
[1] = Spectral characteristics and relative fluorescence yield of IR-786 (absorbance and fluorescence measurements); format: physicochemical; conditions: for Relative Fluorescence Yield: samples matched for absorbance, 655 nm excitation
Procedure: Absorbance and fluorescence measurements were performed in 1 cm quartz cuvettes as described previously (Ohnishi et al., Mol. Imaging., 2005; 4(3):172-181). For measurement of relative fluorescence yield, IR-786 samples in Tyrodes-HEPES, methanol, or concentrated in washed platelets were matched for absorbance (0.1 A units) and area under the fluorescence emission curve calculated after excitation with a 5 mW 655 nm laser diode.

washed pig platelets = assay: Pig platelet aggregation (aggregometry); format: cell-based; conditions: washed pig platelets incubated 30 minutes with 2 μM IR-786
Procedure: To ensure that platelets loaded with 2 μM IR-786 retained function, the ability of IR-786-loaded platelets to aggregate in response to agonists was assessed. Loaded and non-loaded human platelets, resuspended at a density of 4×10^8 cells/mL in modified Tyrodes-HEPES buffer, were stimulated with agonists in siliconized glass tubes in an optical aggregometer (Chronolog, Havertown, Pa.). Assays were performed at 37° C. and with constant stirring. Aggregation was monitored by measurement of optical density of the platelet suspension (Croce et al., J. Biol. Chem., 1999; 274(51):36321-36327)
The ability of pig platelets to aggregate following incubation with IR-786 was also tested, using aggregometry as described above.

resting platelets = assay: P-selectin surface expression of resting loaded platelets; format: cell-based, human; conditions: resting platelets loaded with 2 μM IR-786
[2] = following incorporation into platelets

emission maximum [1, 2]: 804 nm
excitation maximum [1, 2]: 788 nm
Peak Absorbance ([1]; in Methanol): 775 nm
Peak Emission ([1]; in Methanol): 797 nm
Relative Fluorescence Yield ([1]; in Methanol): 9.5
Peak Absorbance ([1]; in Platelets): 788 nm
Peak Emission ([1]; in Platelets): 804 nm
Relative Fluorescence Yield ([1]; in Platelets): 1.0
Peak Absorbance ([1]; in Tyrode's-HEPES): 769 nm
Peak Emission ([1]; in Tyrode's-HEPES): 789 nm
Relative Fluorescence Yield ([1]; in Tyrode's-HEPES): 1.4
emission maximum ([1]; in aqueous buffer): 788.8 nm
excitation maximum ([1]; in aqueous buffer): 769.3 nm
SMILES: CN1C(=CC=C2CCCC(C=CC3=[N+](C)c4ccccc4C3(C)C)=C2Cl)C(C)(C)c2ccccc21.[O-][Cl+3]([O-])([O-])[O-] [IR-786]
aggregation in response to thrombin or CRP (washed pig platelets): aggregated normally
P-selectin surface expression (platelet activation) (resting platelets): no significant P-selectin surface expression
